“And” between values parts separate entries of the source, which are not always exact repeats. Equal values may be shown once. Toxic doses and inconclusive results are not listed. Rule as the data show it: active = T/C of 150% or more; inactive = T/C below 125%.
Test system: L1210 leukemia ip in BDF1 mice, survival T/C
Test: NCI In Vivo Anticancer Drug Screen. Data for tumor model L1210 Leukemia (intraperitoneal) in B6D2F1 (BDF1) mice
Conditions: endpoint: mean survival time, higher = longer survival
Summary of the method: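 In this screen, tumor-bearing mice given compound are compared to those given vehicle, and their survival values are reported as a treated-to-control quotient.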

[1] = dose: 100.0 mg/kg/injection, schedule: Q04DX003 (ip), vehicle: Klucel (hydroxypropylcellulose) (HPC)
[2] = dose: 200.0 mg/kg/injection, schedule: Q04DX003 (ip), vehicle: Klucel (hydroxypropylcellulose) (HPC)
[3] = dose: 100.0 mg/kg/injection, schedule: Q01DX001 (ip), vehicle: saline
[4] = dose: 200.0 mg/kg/injection, schedule: Q01DX001 (ip), vehicle: saline
[5] = dose: 400.0 mg/kg/injection, schedule: Q01DX001 (ip), vehicle: saline
[6] = dose: 100.0 mg/kg/injection, schedule: Q01DX001 (ip), vehicle: carboxymethylcellulose (CMC)
[7] = dose: 200.0 mg/kg/injection, schedule: Q01DX001 (ip), vehicle: carboxymethylcellulose (CMC)
[8] = dose: 100.0 mg/kg/injection, schedule: Q04DX003 (ip), vehicle: saline with Tween-80
[9] = dose: 200.0 mg/kg/injection, schedule: Q04DX003 (ip), vehicle: saline with Tween-80
[10] = dose: 400.0 mg/kg/injection, schedule: Q04DX003 (ip), vehicle: saline with Tween-80
[11] = dose: 100.0 mg/kg/injection, schedule: Q01DX009 (ip), vehicle: saline with Tween-80
[12] = dose: 100.0 mg/kg/injection, schedule: Q04DX003 (ip), vehicle: saline
[13] = dose: 200.0 mg/kg/injection, schedule: Q04DX003 (ip), vehicle: saline
[14] = dose: 100.0 mg/kg/injection, schedule: Q01DX001 (ip), vehicle: Klucel (hydroxypropylcellulose) (HPC)
[15] = dose: 200.0 mg/kg/injection, schedule: Q01DX001 (ip), vehicle: Klucel (hydroxypropylcellulose) (HPC)
[16] = dose: 200.0 mg/kg/injection, schedule: Q01DX009 (ip), vehicle: saline with Tween-80
[17] = dose: 50.0 mg/kg/injection, schedule: Q01DX001 (ip), vehicle: saline

Measured: T/C

C1CCC(C2CCCC[N-]2)[N-]C1.[Cl][Cu][Cl] (configuration not stated)
inactive: dose: 1.56 mg/kg/injection, schedule: Q01DX009 (ip), vehicle: Klucel (hydroxypropylcellulose) (HPC) 95 % of control | dose: 3.13 mg/kg/injection, schedule: Q01DX009 (ip), vehicle: Klucel (hydroxypropylcellulose) (HPC) 102 % of control | dose: 6.25 mg/kg/injection, schedule: Q01DX009 (ip), vehicle: Klucel (hydroxypropylcellulose) (HPC) 86 % of control | [1] 109 % of control | [2] 95 % of control | dose: 400.0 mg/kg/injection, schedule: Q04DX003 (ip), vehicle: Klucel (hydroxypropylcellulose) (HPC) 101 % of control

Cc1cccc(NC(=S)Nc2ccc(-c3ccc(NC(=S)Nc4cccc(C)c4)cc3)cc2)c1
inactive: dose: 100.0 mg/kg/injection, schedule: Q01DX009 (ip), vehicle: other 104 % of control | dose: 200.0 mg/kg/injection, schedule: Q01DX009 (ip), vehicle: other 106 % of control | dose: 400.0 mg/kg/injection, schedule: Q01DX009 (ip), vehicle: other 96 % of control

COc1ccc2c(c1OC)-c1c3c(cc4c1C(C2)N(C)CC4)OCO3 (configuration not stated)
inactive: [3] 98 % of control | [4] 101 % of control | [5] 96 % of control

CN(C)C1CCC(N=Nc2cc([N+](=O)[O-])ccc2C(=O)O)CC1 (configuration not stated)
inactive: dose: 75.0 mg/kg/injection, schedule: Q01DX001 (ip), vehicle: acetone 105 % of control | dose: 150.0 mg/kg/injection, schedule: Q01DX001 (ip), vehicle: acetone 97 % of control | dose: 300.0 mg/kg/injection, schedule: Q01DX001 (ip), vehicle: acetone 90 % of control

COC(=O)c1[nH]cnc1/N=N/N(C)C1CCCCC1
inactive: [6] 91 % of control | [7] 102 % of control

CC(C)(C)C(=O)C1C(=O)c2ccccc2C1=O
inactive: dose: 0.25 mg/kg/injection, schedule: Q01DX009 (ip), vehicle: Klucel (hydroxypropylcellulose) (HPC) 101 % of control | dose: 0.25 mg/kg/injection, schedule: Q04DX003 (ip), vehicle: Klucel (hydroxypropylcellulose) (HPC) 95 % of control | dose: 0.5 mg/kg/injection, schedule: Q01DX009 (ip), vehicle: Klucel (hydroxypropylcellulose) (HPC) 95 % of control | dose: 0.5 mg/kg/injection, schedule: Q04DX003 (ip), vehicle: Klucel (hydroxypropylcellulose) (HPC) 101 % of control | dose: 1.0 mg/kg/injection, schedule: Q01DX009 (ip), vehicle: Klucel (hydroxypropylcellulose) (HPC) 104 % of control | dose: 1.0 mg/kg/injection, schedule: Q04DX003 (ip), vehicle: Klucel (hydroxypropylcellulose) (HPC) 100 % of control

CCCCCCCCCCNc1ccc(Cl)nn1
inactive: [8] 93 % of control | [9] 93 % of control | [10] 90 % of control

CCOC(=O)C(CCSC(C)=O)SC(C)=O (configuration not stated)
inactive: dose: 25.0 mg/kg/injection, schedule: Q01DX009 (ip), vehicle: saline with Tween-80 94 % of control | dose: 50.0 mg/kg/injection, schedule: Q01DX009 (ip), vehicle: saline with Tween-80 96 % of control | [11] 89 % of control | [8] 95 % of control | [9] 92 % of control

CC1CN=C(c2cccc(NC(=O)c3ccc(C(=O)Nc4cccc(C5=NCC(C)N5)c4)c(N)c3)c2)N1 (configuration not stated)
inactive: dose: 1.25 mg/kg/injection, schedule: Q01DX Z (ip), vehicle: water 91 % of control | dose: 2.5 mg/kg/injection, schedule: Q01DX Z (ip), vehicle: water 89 % of control

CC(=O)Nc1cccc(OCCCOc2ccc([N+](=O)[O-])cc2)c1
inactive: [6] 95 % of control | [7] 101 % of control | dose: 400.0 mg/kg/injection, schedule: Q01DX001 (ip), vehicle: carboxymethylcellulose (CMC) 90 % of control

CC(C)c1ccc(/C=N\[N+](C)(C)C)cc1
inactive: [12] 101 % of control | [13] 95 % of control

CCN(CC)CCn1c(CC23CC4CC(CC(C4)C2)C3)nc2cc([N+](=O)[O-])ccc21
inactive: [14] 90 % of control | [15] 98 % of control

CC(SC(C)c1ccccc1)c1ccccc1 (configuration not stated)
inactive: [11] 93 % of control | [8] 101 % of control | [16] 91 % of control | [9] 106 % of control | [10] 97 % of control

CCC(Cl)(Cl)[N+](=O)[O-]
inactive: dose: 100.0 mg/kg/injection, schedule: Q04DX002 (ip), vehicle: saline with Tween-80 98 % of control | dose: 200.0 mg/kg/injection, schedule: Q04DX002 (ip), vehicle: saline with Tween-80 98 % of control | dose: 400.0 mg/kg/injection, schedule: Q04DX002 (ip), vehicle: saline with Tween-80 102 % of control

O=C(CCCC(=O)N/N=C/c1cccc([N+](=O)[O-])c1)N/N=C\c1cccc([N+](=O)[O-])c1
inactive: [17] 101 % of control | [3] 95 % of control | [4] 95 % of control | [5] 91 % of control

CN1CCC/C1=N\c1nn[nH]n1
inactive: [14] 106 % of control | [15] 97 % of control | dose: 400.0 mg/kg/injection, schedule: Q01DX001 (ip), vehicle: Klucel (hydroxypropylcellulose) (HPC) 93 % of control

O=C(c1ccccc1)C1C(=O)N(c2ccccc2)C(=O)N1c1ccccc1 (configuration not stated)
inactive: [3] 90 % of control | [4] 96 % of control | [5] 96 % of control

O=C(COc1cc(Cl)c(Cl)cc1Cl)NO
inactive: dose: 50.0 mg/kg/injection, schedule: Q01DX009 (ip), vehicle: Klucel (hydroxypropylcellulose) (HPC) 98 % of control | dose: 100.0 mg/kg/injection, schedule: Q01DX009 (ip), vehicle: Klucel (hydroxypropylcellulose) (HPC) 104 % of control | [1] 101 % of control | dose: 200.0 mg/kg/injection, schedule: Q01DX009 (ip), vehicle: Klucel (hydroxypropylcellulose) (HPC) 112 % of control | [2] 101 % of control

CC(C)(C)c1ccc(CBr)cc1
inactive: dose: 25.0 mg/kg/injection, schedule: Q04DX002 (ip), vehicle: Klucel (hydroxypropylcellulose) (HPC) 102 % of control | dose: 50.0 mg/kg/injection, schedule: Q04DX002 (ip), vehicle: Klucel (hydroxypropylcellulose) (HPC) 94 % of control | dose: 100.0 mg/kg/injection, schedule: Q04DX002 (ip), vehicle: Klucel (hydroxypropylcellulose) (HPC) 94 % of control

CC(O)CN(CC(C)O)c1ccccc1 (configuration not stated)
inactive: [11] 102 % of control | [8] 102 % of control | [16] 94 % of control | [9] 103 % of control | [10] 101 % of control

NCCCOc1ccc([N+](=O)[O-])cc1
inactive: [17] 100 % of control | dose: 50.0 mg/kg/injection, schedule: Q01DX009 (ip), vehicle: saline 104 % of control and 109 % of control | dose: 50.0 mg/kg/injection, schedule: Q04DX003 (ip), vehicle: saline 95 % of control | [3] 101 % of control | dose: 100.0 mg/kg/injection, schedule: Q01DX009 (ip), vehicle: saline 102 % of control and 107 % of control | dose: 100.0 mg/kg/injection, schedule: Q04DX002 (ip), vehicle: saline 96 % of control and 89 % of control | [12] 114 % of control | [4] 100 % of control | dose: 200.0 mg/kg/injection, schedule: Q01DX009 (ip), vehicle: saline 100 % of control | dose: 200.0 mg/kg/injection, schedule: Q04DX002 (ip), vehicle: saline 93 % of control and 96 % of control | [13] 106 % of control
